Results as given in patent US10786690B2, “Amide derivatives of polycaffeoylquinic acids, process for producing same and uses thereof” (TEMISIS, priority 2016, dated 2020).
“And” between values parts separate entries of the source, which are not always exact repeats. Equal entries are not always repeated.

What was measured:
[1] = tested on: Normal Human Epidermal Keratinocytes (NHEKs); experiment: Microscopic observation of NHEK cell survival 48 h after inflammatory treatment; format: cell-based
Method: The cells, treated and not treated by the compounds to be tested, were observed under an optical microscope 48 h after the following inflammatory treatment: 10 ng/mL PMA/H2O+2 μM calcium ionophore A23187/DMSO.
NHEKs were brought into contact or not with the compounds to be tested. After 2 h, the cells underwent or not an inflammation treatment (10 ng/mL PMA/H2O+2 μM calcium ionophore A23187/DMSO).
The cells were observed under an optical microscope 48 h after the inflammatory treatment.

[2] = tested on: Normal Human Dermal Fibroblasts (NHDFs); experiment: qRT-PCR gene expression in Normal Human Dermal Fibroblasts; format: cell-based; conditions: 4 μM, 24 h
Method: The study consisted in measuring the effects of compound PAT1657 by qRT-PCR on the expression of 94 genes involved in dermal biology, connective tissue remodelling and ageing.
The protocol consisted in applying compound PAT1657 for 24 h in the culture medium of Normal Human Dermal Fibroblasts (NHDFs) in monolayer and analysing the various RNA populations to identify the genes differentially expressed by real-time qRT-PCR.
The study was carried out on Normal Human Dermal Fibroblasts (NHDFs) (ATCC, CRL-2522, origin: foreskin) at about 40% of their proliferative potential and grown in monolayer in DMEM medium (Invitrogen, 31885-049) containing antibiotics (penicillin/streptomycin, Invitrogen, 15140-122) but not containing serum. The cells were maintained in a humid atmosphere at 37° C. containing 5% CO2.
Compound PAT1657 was applied in the NHDF culture medium for 24 h (n=3). Controls treated with the solvent DMSO (1% for the NHDFs) in which the active agents were prepared were also analysed. At the end of the treatments, total RNA populations were extracted, their integrity was analysed by capillary electrophoresis, and gene expression differences were analysed by qRT-PCR using 96-well TaqMan microfluidic cards (custom produced by Applied Biosystems), targeting key functions of the dermis and epidermis. The technical details of the implementation of the present paragraph are explained in the “Materials and methods” section of Example 1 of patent application FR1650745 and more specifically the sub-section titled “Analysis of gene expression changes” (page 26 line 22 to page 28 line 9).
The gene expression changes induced by the active agents are expressed as relative quantity (RQ) based on the respective DMSO solvent controls.

Which results are given for `CCCCCCCCNC(=O)[C@]1(O)C[C@@H](OC(=O)/C=C/c2ccc(O)c(O)c2)[C@@H](O)[C@H](OC(=O)/C=C/c2ccc(O)c(O)c2)C1` [PAT1657, (2E,2′E)-((1R,2S,3R,5S)-2,5-dihydroxy-5-(octylcarbamoyl)cyclohexane-1,3-diyl) bis(3-(3,4-dihydroxyphenyl)acrylate)]?
Result at 48 h: cell survival ([1]; NHEK cultures 48 h after inflammatory treatment (10 ng/mL PMA + 2 μM calcium ionophore A23187), microscopic observation): Confluent culture: 100%; effect on cell survival / cellular protection against inflammation ([1]; NHEK cultures 48 h after inflammatory treatment, summary in words): strong cellular protection against inflammation; expression of gene GSS ([2]; in words only): overexpressed; RQ (relative expression), gene CCL5 ([2]; relative to 1% DMSO vehicle): 28.13; RQ (relative expression), gene DDIT3 ([2]; relative to 1% DMSO vehicle): 2.81; RQ (relative expression), gene FTL ([2]; relative to 1% DMSO vehicle): 2.1 and 2.08; RQ (relative expression), gene GADD45A ([2]; relative to 1% DMSO vehicle): 3.68; RQ (relative expression), gene KLF4 ([2]; relative to 1% DMSO vehicle): 1.9 and 1.93; RQ (relative expression), gene MMP1 ([2]; relative to 1% DMSO vehicle): 6.9 and 6.91; RQ (relative expression), gene MMP3 ([2]; relative to 1% DMSO vehicle): 3.1 and 3.12; RQ (relative expression), gene MTNR1A ([2]; relative to 1% DMSO vehicle): 1.46; RQ (relative expression), gene NANOG ([2]; relative to 1% DMSO vehicle): 4.7 and 4.67; RQ (relative expression), gene NOX1 ([2]; relative to 1% DMSO vehicle): 1.46; RQ (relative expression), gene POU5F1 ([2]; relative to 1% DMSO vehicle): 5.1; RQ (relative expression), gene RBP2 ([2]; relative to 1% DMSO vehicle): 1.46; RQ (relative expression), gene RORA ([2]; relative to 1% DMSO vehicle): 4.4 and 4.41; RQ (relative expression), gene SIRT1 ([2]; relative to 1% DMSO vehicle): 2.02; RQ (relative expression), gene SOD2 ([2]; relative to 1% DMSO vehicle): 4.7 and 4.66; RQ (relative expression), gene TXNRD1 ([2]; relative to 1% DMSO vehicle): 2.8 and 2.82; RQ (relative expression), gene VEGFA ([2]; relative to 1% DMSO vehicle): 8.3 and 8.28
